Test system: 935938-334-R-J1-PDC complex spheroid viability
Experiment: Anticancer human tumor 935938-334-R-J1-PDC patient-derived small intestine adenocarcinoma cell line growth inhibition [POLQ]
Settings: for IC50: curve of first compound; for viability, T/C: stronger effect = lower value
How it was run: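 PDC + HUVEC + MSC complex spheroids; POLQ inhibitors ± partner drugs; top conc. at/near clinical Cmax, else 10 microM (SN-38 1 microM), half-log dilutions; 37 degrees C, 5% CO2.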

[1] = second compound 0.0316 µM, first compound 0.0316 µM
[2] = second compound 0.0316 µM, first compound 0.1 µM
[3] = second compound 0.0316 µM, first compound 0.316 µM
[4] = second compound 0.0316 µM, first compound 1 µM
[5] = second compound 0.0316 µM, first compound 3.16 µM
[6] = second compound 0.0316 µM, first compound 10 µM
[7] = second compound 0.1 µM, first compound 0.0316 µM
[8] = second compound 0.1 µM, first compound 0.1 µM
[9] = second compound 0.1 µM, first compound 0.316 µM
[10] = second compound 0.1 µM, first compound 1 µM
[11] = second compound 0.1 µM, first compound 3.16 µM
[12] = second compound 0.1 µM, first compound 10 µM
[13] = second compound 0.316 µM, first compound 0.0316 µM
[14] = second compound 0.316 µM, first compound 0.1 µM
[15] = second compound 0.316 µM, first compound 0.316 µM
[16] = second compound 0.316 µM, first compound 1 µM
[17] = second compound 0.316 µM, first compound 3.16 µM
[18] = second compound 0.316 µM, first compound 10 µM
[19] = second compound 1 µM, first compound 0.0316 µM
[20] = second compound 1 µM, first compound 0.1 µM
[21] = second compound 1 µM, first compound 0.316 µM
[22] = second compound 1 µM, first compound 1 µM
[23] = second compound 1 µM, first compound 3.16 µM
[24] = second compound 1 µM, first compound 10 µM
[25] = second compound 3.16 µM, first compound 0.0316 µM
[26] = second compound 3.16 µM, first compound 0.1 µM
[27] = second compound 3.16 µM, first compound 0.316 µM
[28] = second compound 3.16 µM, first compound 1 µM
[29] = second compound 3.16 µM, first compound 3.16 µM
[30] = second compound 3.16 µM, first compound 10 µM
[31] = second compound 10 µM, first compound 0.0316 µM
[32] = second compound 10 µM, first compound 0.1 µM
[33] = second compound 10 µM, first compound 0.316 µM
[34] = second compound 10 µM, first compound 1 µM
[35] = second compound 10 µM, first compound 3.16 µM
[36] = second compound 10 µM, first compound 10 µM
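Also: spheroids exposed to drugs for seven days before viability read.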
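For viability, T/C in this document: 100% = DMSO vehicle control wells.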

With C#Cc1c(F)ccc2cc(O)cc(-c3ncc4c(N5CC6CCC(C5)N6)nc(OCC56CCCN5CC(F)C6)nc4c3F)c12 (stereo unspecified) + Nc1ccc(C#CCN(C(=O)Cc2ncc(C(F)(F)F)cc2C(F)(F)F)c2ccc(F)cc2)nn1 the IC50 (second compound 0.0316 µM) was 5750 nM, the IC50 (second compound 0.1 µM) was greater than 10000 nM and the IC50 (second compound 0.316 µM) was 2920 nM. The IC50 (second compound 1 µM) was 2850 nM, the IC50 (second compound 3.16 µM) was greater than 10000 nM and the IC50 (second compound 10 µM) was 2940 nM. For the same compound, the viability, T/C [1] was 97.5%, the viability, T/C [2] was 104% and the viability, T/C [3] was 84.6%. The viability, T/C [4] was 74.1%, the viability, T/C [5] was 65% and the viability, T/C [6] was 38.4%. For the same compound, the viability, T/C [7] was 97.9%, the viability, T/C [8] was 84.8% and the viability, T/C [9] was 90.4%. The viability, T/C [10] was 97.4%, the viability, T/C [11] was 52.1% and the viability, T/C [12] was 53.6%. The viability, T/C [13] was 83.7%, the viability, T/C [14] was 114% and the viability, T/C [15] was 92%. The viability, T/C [16] was 68.2%, the viability, T/C [17] was 52% and the viability, T/C [18] was 42.1%. For the same compound, the viability, T/C [19] was 81.4%, the viability, T/C [20] was 111% and the viability, T/C [21] was 92.1%. The viability, T/C [22] was 73.4%, the viability, T/C [23] was 48.6% and the viability, T/C [24] was 41.8%. The viability, T/C [25] was 105%, the viability, T/C [26] was 99.6% and the viability, T/C [27] was 66.9%. It also gave a viability, T/C [28] of 66.4%, a viability, T/C [29] of 61.1% and a viability, T/C [30] of 67.2%. For the same compound, the viability, T/C [31] was 108%, the viability, T/C [32] was 96.7% and the viability, T/C [33] was 76.2%. For the same compound, the viability, T/C [34] was 63.6%, the viability, T/C [35] was 43% and the viability, T/C [36] was 48.9%.

C=CC(=O)N1CCN(c2nc(=O)n(-c3c(C)ccnc3C(C)C)c3nc(-c4c(O)cccc4F)c(F)cc23)C(C)C1 (stereo unspecified) + Nc1ccc(C#CCN(C(=O)Cc2ncc(C(F)(F)F)cc2C(F)(F)F)c2ccc(F)cc2)nn1 gave an IC50 (second compound 0.0316 µM) greater than 10000 nM, an IC50 (second compound 0.1 µM) greater than 10000 nM and an IC50 (second compound 0.316 µM) greater than 10000 nM. The IC50 (second compound 1 µM) was greater than 10000 nM, the IC50 (second compound 3.16 µM) was greater than 10000 nM and the IC50 (second compound 10 µM) was greater than 10000 nM. It also gave a viability, T/C [1] of 99.1%, a viability, T/C [2] of 111% and a viability, T/C [3] of 87.1%. For the same compound, the viability, T/C [4] was 128%, the viability, T/C [5] was 125% and the viability, T/C [6] was 112%. It also gave a viability, T/C [7] of 90.7%, a viability, T/C [8] of 99.5% and a viability, T/C [9] of 91.2%. For the same compound, the viability, T/C [10] was 138%, the viability, T/C [11] was 122% and the viability, T/C [12] was 107%. It also gave a viability, T/C [13] of 106%, a viability, T/C [14] of 106% and a viability, T/C [15] of 87.3%. It also gave a viability, T/C [16] of 94.8%, a viability, T/C [17] of 128% and a viability, T/C [18] of 87.4%. For the same compound, the viability, T/C [19] was 91.4%, the viability, T/C [20] was 96.9% and the viability, T/C [21] was 98.4%. For the same compound, the viability, T/C [22] was 134%, the viability, T/C [23] was 115% and the viability, T/C [24] was 138%. The viability, T/C [25] was 85.1%, the viability, T/C [26] was 89.9% and the viability, T/C [27] was 114%. For the same compound, the viability, T/C [28] was 95.9%, the viability, T/C [29] was 183% and the viability, T/C [30] was 113%. It also gave a viability, T/C [31] of 88.2%, a viability, T/C [32] of 95.8% and a viability, T/C [33] of 116%. It also gave a viability, T/C [34] of 89.3%, a viability, T/C [35] of 119% and a viability, T/C [36] of 138%.

With CC1COCCN1c1cc(C2(O)CC3CCC(C2)O3)c2cnn(-c3ccn[nH]3)c2n1 (stereo unspecified) + Nc1ccc(C#CCN(C(=O)Cc2ncc(C(F)(F)F)cc2C(F)(F)F)c2ccc(F)cc2)nn1 the IC50 (second compound 0.0316 µM) was 74.7 nM, the IC50 (second compound 0.1 µM) was 171 nM and the IC50 (second compound 0.316 µM) was 102 nM. For the same compound, the IC50 (second compound 1 µM) was 157 nM, the IC50 (second compound 3.16 µM) was 125 nM and the IC50 (second compound 10 µM) was 122 nM. For the same compound, the viability, T/C [1] was 71.3%, the viability, T/C [2] was 42.2% and the viability, T/C [3] was 28%. For the same compound, the viability, T/C [4] was 19.2%, the viability, T/C [5] was 15.8% and the viability, T/C [6] was 12.8%. It also gave a viability, T/C [7] of 83.8%, a viability, T/C [8] of 62.7% and a viability, T/C [9] of 35.5%. For the same compound, the viability, T/C [10] was 18.7%, the viability, T/C [11] was 15.4% and the viability, T/C [12] was 12.5%. It also gave a viability, T/C [13] of 107%, a viability, T/C [14] of 44.9% and a viability, T/C [15] of 34.7%. For the same compound, the viability, T/C [16] was 19.6%, the viability, T/C [17] was 18.1% and the viability, T/C [18] was 9.14%. It also gave a viability, T/C [19] of 75.9%, a viability, T/C [20] of 62.8% and a viability, T/C [21] of 29.9%. It also gave a viability, T/C [22] of 22.5%, a viability, T/C [23] of 15.3% and a viability, T/C [24] of 9.68%. The viability, T/C [25] was 99.3%, the viability, T/C [26] was 55.3% and the viability, T/C [27] was 28.2%. The viability, T/C [28] was 21.3%, the viability, T/C [29] was 16.1% and the viability, T/C [30] was 11.8%. For the same compound, the viability, T/C [31] was 94.7%, the viability, T/C [32] was 54.4% and the viability, T/C [33] was 29.5%. It also gave a viability, T/C [34] of 15.7%, a viability, T/C [35] of 18.7% and a viability, T/C [36] of 10.8%.
